Common to all, as to assay: stopped-flow CO2 hydrase assay
Experiment [1] concerns the target T1, VchCAγ (Vibrio cholerae, UniProt Q9KVT1).
T1 construct: gene VC_0058
Format: biochemical. As to conditions: CO2 hydration, 10 mM Tris pH 8.3, 0.1 M Na2SO4, 25 °C, 15 min preincubation.

For experiment [2], the target named is T2, VchCAβ (Vibrio cholerae, UniProt Q9KUD6).
T2 construct: gene VC_0586
Format: biochemical.

Experiment [3] has as its target T3, VchCAα (Vibrio cholerae, UniProt Q9KMP6).
T3 construct: gene VC_A0274
It counts as biochemical. As to conditions: read-out: VchCAα; CO2 hydration, 10 mM HEPES pH 7.5, 0.1 M Na2SO4, 25 °C, 15 min preincubation.

The target of experiment [4] is T4, PgiCAγ.
T4 construct: gene PgiCA
Format: biochemical, Porphyromonas gingivalis. As to conditions: CO2 hydration, 10 mM Tris pH 8.3, 0.1 M Na2SO4, 25 °C, 15 min preincubation.

In experiment [5] the target is T5, PgiCAβ (Porphyromonas gingivalis, UniProt B2RL07).
T5 construct: gene PGN_1533
T5 sequence (B2RL07 19-242): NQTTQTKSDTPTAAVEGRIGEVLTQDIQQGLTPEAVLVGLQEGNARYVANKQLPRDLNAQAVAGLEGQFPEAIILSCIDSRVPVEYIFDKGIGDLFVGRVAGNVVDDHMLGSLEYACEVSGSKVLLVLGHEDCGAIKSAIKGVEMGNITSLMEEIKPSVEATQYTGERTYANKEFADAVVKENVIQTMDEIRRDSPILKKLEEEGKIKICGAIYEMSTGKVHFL
It counts as biochemical. As to conditions: CO2 hydration, 10 mM Tris pH 8.3, 0.1 M Na2SO4, 25 °C, 15 min preincubation.

Experiment [6] addresses T6, TweCAδ (Conticribra weissflogii, UniProt Q5U9J1).
T6 construct: gene ca1
T6 sequence (Q5U9J1 1-281): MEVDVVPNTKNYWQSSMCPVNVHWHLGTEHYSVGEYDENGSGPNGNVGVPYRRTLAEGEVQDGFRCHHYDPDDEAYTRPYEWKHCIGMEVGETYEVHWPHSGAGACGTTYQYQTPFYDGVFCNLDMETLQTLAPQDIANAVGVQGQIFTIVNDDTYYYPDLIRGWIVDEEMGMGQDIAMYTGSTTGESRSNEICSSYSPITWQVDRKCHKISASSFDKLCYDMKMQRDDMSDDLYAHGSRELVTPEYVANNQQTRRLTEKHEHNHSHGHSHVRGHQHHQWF
It counts as biochemical. To be noted: CO2 hydration, 10 mM HEPES pH 7.5, 0.1 M Na2SO4, 25 °C, 15 min preincubation.

Like-named read-outs stand apart in the source and are kept apart here.

T3 sequence (Q9KMP6 21-239 limits assumed): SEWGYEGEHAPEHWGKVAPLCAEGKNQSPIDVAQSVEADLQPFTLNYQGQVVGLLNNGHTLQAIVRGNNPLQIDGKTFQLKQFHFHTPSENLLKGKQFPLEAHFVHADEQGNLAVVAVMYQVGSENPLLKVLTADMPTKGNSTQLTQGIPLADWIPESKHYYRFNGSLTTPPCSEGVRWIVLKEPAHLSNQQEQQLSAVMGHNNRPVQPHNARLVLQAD
T1 sequence (Q9KVT1 1-184): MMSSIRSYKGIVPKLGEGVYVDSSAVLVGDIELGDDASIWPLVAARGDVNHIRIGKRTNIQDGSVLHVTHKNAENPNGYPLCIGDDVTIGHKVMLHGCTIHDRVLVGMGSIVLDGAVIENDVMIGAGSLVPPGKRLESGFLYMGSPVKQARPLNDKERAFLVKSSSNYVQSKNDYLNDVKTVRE
T2 sequence (Q9KUD6 1-222): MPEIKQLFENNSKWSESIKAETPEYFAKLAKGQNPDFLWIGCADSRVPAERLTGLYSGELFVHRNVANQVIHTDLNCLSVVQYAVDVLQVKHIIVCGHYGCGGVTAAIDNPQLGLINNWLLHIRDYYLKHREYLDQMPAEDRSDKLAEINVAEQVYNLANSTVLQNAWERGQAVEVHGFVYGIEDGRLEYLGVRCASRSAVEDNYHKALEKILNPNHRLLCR

With `O=C(NO)Nc1ccccc1` [compound 1, 1: H], the Ki in experiment [1] (read-out: VchCAγ) was more than 10 µM; in experiment [2] (read-out: VchCAβ) it was 1.81 µM; in experiment [3] it was 7.26 µM; in experiment [4] (read-out: PgiCAγ) it was 6.42 µM; in experiment [5] (read-out: VchCAγ) it was more than 10 µM; in experiment [6] (read-out: VchCAγ), more than 10 µM.

Turning to `Cc1ccc(NC(=O)NO)cc1` [compound 2, 2: 4-CH3], the Ki in experiment [1] (read-out: VchCAγ) is more than 10 µM; in experiment [2] (read-out: VchCAβ), 0.483 µM; in experiment [3], 0.111 µM; in experiment [4] (read-out: PgiCAγ), 0.298 µM; in experiment [5] (read-out: VchCAγ), more than 10 µM; in experiment [6] (read-out: VchCAγ), more than 10 µM.

`Cc1ccccc1NC(=O)NO` [compound 3, 3: 2-CH3]: the Ki was more than 10 µM in experiment [1] (read-out: VchCAγ); 0.377 µM in experiment [2] (read-out: VchCAβ); 0.829 µM in experiment [3]; 4.21 µM in experiment [4] (read-out: PgiCAγ); more than 10 µM in experiment [5] (read-out: VchCAγ); more than 10 µM in experiment [6] (read-out: VchCAγ).

Consider `O=C(NO)Nc1ccc(Cl)cc1` [compound 4, 4: 4-Cl], for which the Ki in experiment [1] (read-out: VchCAγ) was more than 10 µM; in experiment [2] (read-out: VchCAβ), 0.541 µM; in experiment [3] it was 4.41 µM; in experiment [4] (read-out: PgiCAγ) it was 0.934 µM; in experiment [5] (read-out: VchCAγ) it was more than 10 µM; in experiment [6] (read-out: TweCAδ) it was 8.74 µM.

For the molecule `O=C(NO)Nc1ccccc1Cl` [compound 5, 5: 2-Cl], the Ki was more than 10 µM in experiment [1] (read-out: VchCAγ); 0.0642 µM in experiment [2] (read-out: VchCAβ); 5.94 µM in experiment [3]; 3.03 µM in experiment [4] (read-out: PgiCAγ); more than 10 µM in experiment [5] (read-out: VchCAγ); more than 10 µM in experiment [6] (read-out: VchCAγ).

On to `O=C(NO)Nc1cccc(Cl)c1` [compound 6, 6: 3-Cl], for which the Ki in experiment [1] (read-out: VchCAγ) is more than 10 µM; in experiment [2] (read-out: VchCAβ) it was 0.0603 µM; in experiment [3] it was 4 µM; in experiment [4] (read-out: PgiCAγ), 0.819 µM; in experiment [5] (read-out: VchCAγ) it was more than 10 µM; in experiment [6] (read-out: VchCAγ), more than 10 µM.

For `O=C(NO)Nc1ccc([N+](=O)[O-])cc1` [compound 7, 7: 4-O2N], the Ki in experiment [1] (read-out: VchCAγ) is more than 10 µM; in experiment [2] (read-out: VchCAβ), 0.0541 µM; in experiment [3] it was 0.509 µM; in experiment [4] (read-out: PgiCAγ) it was 2.7 µM; in experiment [5] (read-out: VchCAγ) it was more than 10 µM; in experiment [6] (read-out: VchCAγ), more than 10 µM.

For the molecule `O=C(NO)Nc1ccccc1[N+](=O)[O-]` [compound 8, 8: 2-O2N], the Ki was 5.69 µM in experiment [1] (read-out: VchCAγ); 0.0525 µM in experiment [2] (read-out: VchCAβ); 0.536 µM in experiment [3]; 0.0823 µM in experiment [4] (read-out: PgiCAγ); more than 10 µM in experiment [5] (read-out: PgiCAβ); more than 10 µM in experiment [6] (read-out: PgiCAβ).

For `Cc1ccc(C)c(NC(=O)NO)c1` [compound 9, 9: 2,5-Me2], the Ki in experiment [1] (read-out: VchCAγ) was 5.5 µM; in experiment [2] (read-out: VchCAβ), 0.0593 µM; in experiment [3], 0.0975 µM; in experiment [4] (read-out: PgiCAγ), 0.0844 µM; in experiment [5] (read-out: PgiCAβ), more than 10 µM; in experiment [6] (read-out: PgiCAβ), more than 10 µM.

For `O=C(NO)Nc1ccc(F)cc1` [compound 10, 10: 4-F], the Ki in experiment [1] (read-out: VchCAα), in experiment [3], in experiment [4] (read-out: VchCAα), in experiment [5] (read-out: VchCAα) and in experiment [6] (read-out: VchCAα) was more than 10 µM in each case.

For the molecule `CCOC(=O)c1cccc(NC(=O)NO)c1` [compound 11, 11: 3-EtOOC], the Ki in experiment [1] (read-out: VchCAα) was more than 10 µM; in experiment [2] (read-out: VchCAα) it was more than 10 µM; in experiment [3] it was more than 10 µM; in experiment [4] (read-out: VchCAα) it was more than 10 µM; in experiment [5] (read-out: VchCAα), more than 10 µM; in experiment [6] (read-out: TweCAδ) it was 8.49 µM.

For the molecule `Cc1cc(C)cc(NC(=O)NO)c1` [compound 12, 12: 3,5-Me2], the Ki in experiment [1] (read-out: VchCAα) is more than 10 µM; in experiment [2] (read-out: VchCAα) it was more than 10 µM; in experiment [3], more than 10 µM; in experiment [4] (read-out: PgiCAγ), 5.49 µM; in experiment [5] (read-out: VchCAα) it was more than 10 µM; in experiment [6] (read-out: TweCAδ), 0.0578 µM.

`CCOc1ccccc1NC(=O)NO` [compound 13, 13: 2-EtO]: the Ki in experiment [2] (read-out: VchCAα) was more than 10 µM; in experiment [3] it was more than 10 µM; in experiment [4] (read-out: PgiCAγ), more than 10 µM; in experiment [5] (read-out: VchCAα), more than 10 µM; in experiment [6] (read-out: TweCAδ) it was 0.0333 µM.

As for `CSc1cccc(NC(=O)NO)c1` [compound 14, 14: 3-MeS], the Ki in experiment [2] (read-out: VchCAα) is more than 10 µM; in experiment [3], more than 10 µM; in experiment [4] (read-out: PgiCAγ), 0.0598 µM; in experiment [5] (read-out: VchCAα), more than 10 µM; in experiment [6] (read-out: TweCAδ), 0.052 µM.

Consider `Cc1cc(NC(=O)NO)ccc1F` [compound 15, 15: 4-F-3-Me], for which the Ki in experiment [1] (read-out: VchCAα) was more than 10 µM; in experiment [2] (read-out: VchCAα) it was more than 10 µM; in experiment [3], more than 10 µM; in experiment [4] (read-out: PgiCAγ) it was 2.88 µM; in experiment [5] (read-out: VchCAα), more than 10 µM; in experiment [6] (read-out: TweCAδ) it was 3.94 µM.

For `O=C(NO)Nc1c(F)c(F)c(F)c(F)c1F` [compound 16, 16: F5], the Ki in experiment [1] (read-out: VchCAα) was more than 10 µM; in experiment [2] (read-out: VchCAα), more than 10 µM; in experiment [3], more than 10 µM; in experiment [4] (read-out: PgiCAγ) it was 3.48 µM; in experiment [5] (read-out: VchCAα) it was more than 10 µM; in experiment [6] (read-out: TweCAδ) it was 3.41 µM.

For `O=C(NO)Nc1ccc(C(F)(F)F)cc1` [compound 17, 17: 4-CF3], the Ki was more than 10 µM in experiment [1] (read-out: VchCAα); more than 10 µM in experiment [2] (read-out: VchCAα); more than 10 µM in experiment [3]; 2.63 µM in experiment [4] (read-out: PgiCAγ); more than 10 µM in experiment [5] (read-out: VchCAα); 4.64 µM in experiment [6] (read-out: TweCAδ).

Consider `O=C(NO)Nc1ccc(C(F)(F)F)cc1Cl` [compound 18, 18: 4-CF3-2-Cl], for which the Ki in experiment [1] (read-out: VchCAγ) was 5.43 µM; in experiment [2] (read-out: VchCAα) it was more than 10 µM; in experiment [3], more than 10 µM; in experiment [4] (read-out: VchCAα) it was more than 10 µM; in experiment [6] (read-out: TweCAδ), 0.856 µM.

Consider `COc1ccccc1NC(=O)NO` [compound 19, 19: 2-MeO], for which the Ki in experiment [1] (read-out: VchCAγ) is 4.75 µM; in experiment [2] (read-out: VchCAα), more than 10 µM; in experiment [3], more than 10 µM; in experiment [4] (read-out: VchCAα), more than 10 µM; in experiment [6] (read-out: TweCAδ), 2.88 µM.

Turning to `O=C(NO)Nc1ccc(Oc2ccccc2)cc1` [compound 20, 20: 4-PhO], the Ki is more than 10 µM in experiment [1] (read-out: VchCAα); more than 10 µM in experiment [2] (read-out: VchCAα); more than 10 µM in experiment [3]; more than 10 µM in experiment [4] (read-out: VchCAα); 0.761 µM in experiment [6] (read-out: TweCAδ).
